Test results taken from patent EP0075629A1, “Imidazole derivatives, their preparation, and their pharmaceutical compositions” (Sumitomo Chemical Industries Ltd., priority 1981, dated 1983).

tested on: Lewis lung carcinoma (solid); test: Antitumor effect on mouse experimental tumors (tumor inhibitory ratio by tumor weight); type: in vivo; details: Dose 100 mg/kg, route i.p., schedule 5q2d (days 1, 3, 5, 7 and 9); tumors removed and weighed at day 13; BDF1 male mice
Description: The antitumor activities of compounds of the present invention were estimated according to the methods described in "Cancer chemotheraphy reports" Part 3, Vol. 3, (No. 2) p.13 (1972).
BDF1 male mice, 5 weeks old, weighing between 18 and 22 grams were used. Each test group was composed of 6 to 7 mice. Two million cells of Lewis lung carcinoma were injected in the hind leg. The drug was administered intraperitoneally at days 1, 3, 5, 7 and 9 (or 5q2d).
After killing the mice at day 13, tumors were removed and weighed. The tumor inhibitory ratio was calculated according to the following formula: [formula]

`COc1ccc(C(=O)Oc2nc[nH]c2C(N)=O)cc1OC` [5-Carbamoyl-1H-imidazole-4-yl 3',4'-dimethoxy-benzoate] was tested. Which “Inhibition Ratio (%) Lewis lung carcinoma (solid)” value did it give?
The value was 83.1%.

How did the “Inhibition Ratio (%) Lewis lung carcinoma (solid)” value turn out when `COc1cc(C(=O)Oc2nc[nH]c2C(N)=O)ccc1C` [5-Carbamoyl-1H-imidazole-4-yl 3'-methoxy-4'-methylbenzoate] was run?
Its value is 89.4%.

How did the “Inhibition Ratio (%) Lewis lung carcinoma (solid)” value turn out when `NC(=O)c1[nH]cnc1OC(=O)C=Cc1cccc([N+](=O)[O-])c1` [5-Carbamoyl-1H-imidazole-4-yl m-nitrocinnamate] was run?
The value was 90%.

How did the “Inhibition Ratio (%) Lewis lung carcinoma (solid)” value turn out when `NC(=O)c1[nH]cnc1OC(=O)C=Cc1ccc(Cl)cc1` [5-Carbamoyl-1H-imidazole-4-yl p-chlorocinnamate] was run?
The value was 90%.

For `NC(=O)c1[nH]cnc1OC(=O)c1ccc(-c2ccccc2)cc1` [5-Carbamoyl-1H-imidazole-4-yl p-phenylbenzoate], which “Inhibition Ratio (%) Lewis lung carcinoma (solid)” value is on record?
The value was 77.0%.
